# Experiments:
# Assay type in all cases: in vivo
# Male Sprague-Dawley rats [1] = assay: Lithium-pilocarpine induced epilepsy test (LI-PILO), intervention, i.v. at SE onset; conditions: iv; rat, administered at SE onset; read-out: Therapeutic effect (min, rat/lv) ED50(mg/kg)
# Experimental: (§1) Biological Experimental Example 2: Lithium-Pilocarpine Induced Epilepsy Test (LI-PILO Test)
# (§2) Male Sprague-Dawley rats (purchased from Orient Bio Inc. Korea) of body weight 175 grams were used for these studies and 3 rats per cage were housed for 4-5 days. On the day prior to SE, rats received 127 mg/kg lithium chloride (Sigma, St. Louis, Mo., U.S.A.) intraperitoneally (i.p.). Approximately 18-20 h following this treatment, rats were given an i.p. injection of 43 mg/kg pilocarpine (Sigma). An i.p. injection of 2 mg/kg methyl-scopolamine (Sigma) was administered 30 min prior to pilocarpine to block the effects of the muscarinic agonist on peripheral cholinergic receptors. Test drugs were dissolved in 20% tween80 (Sigma).
# The drugs were administered intravenously (i.v.) in a volume of 2 ul/g body weight at SE onset. Pharmacological effects of all of the test materials were evaluated to compare test groups (n=3-6) with a control group (n=3-6). Control group was administered vehicle only. The animals were then transferred to observation cages and observed continuously for 90 min. Seizure was elicited in approximately 95% of the control group. […]
# (§3) The results of Lithium-pilocarpine induced epilepsy test of the sulfamate derivative compounds measured in the above Experimental Example are shown in the following Tables 6.
# male SD rats = assay: MES test (anti-epilepsy activity), rats, oral (rMES po); conditions: for ED50: Rattus norvegicus, rats, at peak time
# Experimental: (§4) Biological Experimental Example. 1: Measurement of Anti-Epilepsy Activity (MES-Test)
# (§5) In the MES test (Ref., G. Villetti et al. Neuropharmacology 40(2001) 866-878), an electrical stimulus (mice: 50 mA, 60 Hz, 0.2 sec, and rats: 150 mA, 60 Hz, 0.2 sec in the test animal) supplied by an 11 A Shocker (IITC Life Science Company) was delivered through corneal electrodes. All mice or rats assigned to any electroshock at peak time were treated with each test compound sample which was dissolved in 20% tween 80 prepared by saline solvent applied orally before the test. […] Three doses of the test sample were administered orally to 9-18 animals (3-6 mice per dose) for evaluating the respective doses at which 50% of the animals were protected from seizure (ED50). The ED50 value (median effective close) was calculated by Litchfield and Wicoxon log-probit method which is a dose-response relationship. Experimental animals, male ICR mice and male SD rats, were purchased from OrientBio, Samtako, or Nara Biotech, Korea, and housed in cages (4-5 mice or 3 rats per cage) for 4-5 days. The range of mice body weight was between 19 and 25 grams and range of rats body weight was between 100 and 130 grams.
# (§6) The obtained results are shown as mean±sem. The difference between the groups was statistically analyzed by ANOVA, and then further examined by Dunnett's test or Bonferroni test. If p is less than 0.05, it was determined that the difference between the groups had statistical significance.
# (§7) The results of anti-epileptic activity of the sulfamate derivative compounds measured in the above Experimental Example are shown in the following Tables 4 and 5.
# Male Sprague-Dawley rats [2] = assay: Lithium-pilocarpine induced epilepsy test (LI-PILO), prevention test, i.p.; conditions: for Anti-epileptogenesis (rat/ip) Protection %: 6 rats
# Experimental: as §1, §2
# The drugs were administered intraperitoneally (i.p.) in a volume of 2 ul/g body weight. Pharmacological effects of all of the test materials were evaluated to compare test groups (n=6) with a control group (n=6). Control group was administered vehicle only. The efficacy was measured 0.5, 1, 2, or 4 hours after the administration of the test material. The time point that the most animals were protected was defined as peak time and the ED50 was determined at peak time. The animals were then transferred to observation cages and observed continuously for 90 min. Seizure was elicited in approximately 95% of the control group. Protection was defined as complete absence of seizure grade 3˜5 (Racine scale; Racine, 1972) over the 90-min observation period. The effective dose of the compound necessary to protect 50% of the animals against seizures compared to controls (i.e. ED50) was determined by a curve fitting program (Excel 2007, Microsoft).
# as §3
# male ICR mice = assay: MES test (anti-epilepsy activity), mice, oral (mMES po); conditions: Mus musculus; for ED50: mice, at peak time
# Experimental: as §4, §5, §6, §7
# Male Sprague-Dawley rats [3] = assay: Lithium-pilocarpine induced epilepsy test (LI-PILO), prevention test, i.p.; conditions: injection amount 30 mg/kg, 3 rats, 1 h
# [4] = injection amount 150 mg/kg, 2 h
SMILES,ED50 (Male Sprague-Dawley rats [1]),ED50 (male SD rats),"ED50 (Male Sprague-Dawley rats [2]; ip, rat, prevention, at peak time, read-out: Anti-epileptogenesis (rat/ip) ED50(mg/kg))","Anti-epileptogenesis (rat/ip) Peak Time (Male Sprague-Dawley rats [2]; rat, prevention)",ED50 (male ICR mice),"responders at 100 mg/kg (male ICR mice; injection amount 100 mg/kg, 3 mice, read-out: mMES(po) Protection %)",Anti-epileptogenesis (rat/ip) Protection % (Male Sprague-Dawley rats [3]),"rMES(po) Protection % (male SD rats; injection amount 50 mg/kg, 6 rats)","Anti-epileptogenesis (rat/ip) Protection % (Male Sprague-Dawley rats [2]; injection amount 100 mg/kg, 1 h)","Anti-epileptogenesis (rat/ip) Protection % (Male Sprague-Dawley rats [2]; injection amount 100 mg/kg, 2 h)",Anti-epileptogenesis (rat/ip) Protection % (Male Sprague-Dawley rats [2]; [4]),"responders at 50 mg/kg (male ICR mice; injection amount 50 mg/kg, 4 mice, read-out: mMES(po) Protection %)"
"CC1(C)O[C@@H](COS(N)(=O)=O)[C@H](c2ccccc2Cl)O1 [Example 2, ((4S, 5S)-5-(2-chlorophenyl)-2,2-dimethyl-1,3-dioxolan-4-yl)methyl sulfamate]",89 mg/kg,3.5 mg/kg,97.1 mg/kg,4 h,9 mg/kg,,,,,,,
"Cc1ncsc1[C@H]1OC(C)(C)O[C@@H]1COS(N)(=O)=O [Example 167, ((4R, 5S)-2,2-dimethyl-5-(4-methylthiazol-5-yl)-1,3-dioxolan-4-yl)methylsulfamate]",,,,1 h,,100%,30^a(100%),,,,,
"CC1(C)O[C@H](c2ccccc2F)[C@@H](COS(N)(=O)=O)O1 [Example 15, ((4R, 5R)-5-(2-fluorophenyl)-2,2-dimethyl-1,3-dioxolan-4-yl)methyl sulfamate]",,,,,,,,50^b(66.6%),(16.6%),(50%),150^b(16.6%),100%
"CC1(C)O[C@H](c2ccccc2Cl)[C@@H](COS(N)(=O)=O)O1 [Example 1, ((4R,5R)-5-(2-chlorophenyl)-2,2-dimethyl-1,3-dioxolan-4-yl)methyl sulfamate]",,1.2 mg/kg,,2 h,6.5 mg/kg,,,,,,(50%),

# Source: patent US9937145B2, “Sulfamate derivative compound for use in preventing or treating epilepsy” (Bio-Pharm Solutions Co., Ltd., priority 2013, dated 2018)
